ChEMBL document CHEMBL3774317, “Design and synthesis of novel tamoxifen analogues that avoid CYP2D6 metabolism” (Eur J Med Chem, 2016)

Key:
Assay type in all cases: functional
[1] = system: MDA-MB-468; test: Cytotoxicity against human MDA-MB-468 cells assessed as cell growth at 10^-4 M after 48 hrs by SRB assay; conditions: MDA-MB-468, 48 h, read-out: Activity
[2] = system: KM12; test: Cytotoxicity against human KM12 cells assessed as cell growth at 10^-4 M after 48 hrs by SRB assay; conditions: KM12, 48 h, read-out: Activity
[3] = system: NCI-H460; test: Cytotoxicity against human NCI-H460 cells assessed as cell growth at 10^-8 M after 48 hrs by SRB assay; conditions: NCI-H460, 48 h, read-out: Activity
[4] = system: MDA-MB-468; test: Cytotoxicity against human MDA-MB-468 cells assessed as cell growth at 10^-6 M after 48 hrs by SRB assay; conditions: MDA-MB-468, 48 h, read-out: Activity
[5] = Cytotoxicity against human NCI-ADR-RES cells assessed as cell growth at 10^-7 M after 48 hrs by SRB assay; conditions: read-out: Activity
[6] = Cytotoxicity against human SNB19 cells assessed as cell growth at 10^-6 M after 48 hrs by SRB assay; conditions: SNB-19, 48 h, read-out: Activity
[7] = system: SK-MEL-5; test: Cytotoxicity against human SK-MEL-5 cells assessed as cell growth at 10^-6 M after 48 hrs by SRB assay; conditions: SK-MEL-5, 48 h, read-out: Activity
[8] = Cytotoxicity against human Caki1 cells assessed as cell growth at 10^-7 M after 48 hrs by SRB assay; conditions: CAKI-1, 48 h, read-out: Activity
[9] = Cytotoxicity against human PC3 cells assessed as cell growth at 10^-7 M after 48 hrs by SRB assay; conditions: PC-3, 48 h, read-out: Activity
[10] = system: MDA-MB-231; test: Cytotoxicity against human MDA-MB-231 cells assessed as cell growth at 10^-6 M after 48 hrs by SRB assay; conditions: MDA-MB-231, 48 h, read-out: Activity
[11] = system: MDA-MB-231; test: Cytotoxicity against human MDA-MB-231 cells assessed as cell growth at 10^-5 M after 48 hrs by SRB assay; conditions: MDA-MB-231, 48 h, read-out: Activity
[12] = Cytotoxicity against human SW620 cells assessed as cell growth at 10^-7 M after 48 hrs by SRB assay; conditions: SW-620, 48 h, read-out: Activity
[13] = system: SK-MEL-28; test: Cytotoxicity against human SK-MEL-28 cells assessed as cell growth at 10^-5 M after 48 hrs by SRB assay; conditions: SK-MEL-28, 48 h, read-out: Activity
[14] = system: T47D; test: Cytotoxicity against human T47D cells assessed as cell growth at 10^-7 M after 48 hrs by SRB assay; conditions: read-out: Activity
[15] = Cytotoxicity against human SW620 cells assessed as cell growth at 10^-4 M after 48 hrs by SRB assay; conditions: SW-620, 48 h, read-out: Activity
[16] = Cytotoxicity against human NCI-ADR-RES cells assessed as cell growth at 10^-4 M after 48 hrs by SRB assay; conditions: read-out: Activity
[17] = Cytotoxicity against human COLO205 cells assessed as cell growth at 10^-7 M after 48 hrs by SRB assay; conditions: COLO 205, 48 h, read-out: Activity
[18] = Cytotoxicity against human UACC257 cells assessed as cell growth at 10^-6 M after 48 hrs by SRB assay; conditions: UACC-257, 48 h, read-out: Activity
[19] = Cytotoxicity against human OVCAR4 cells assessed as cell growth at 10^-8 M after 48 hrs by SRB assay; conditions: OVCAR-4, 48 h, read-out: Activity
[20] = Cytotoxicity against human NCI-ADR-RES cells assessed as cell growth at 10^-5 M after 48 hrs by SRB assay; conditions: read-out: Activity
[21] = Cytotoxicity against human HCT15 cells assessed as cell growth at 10^-4 M after 48 hrs by SRB assay; conditions: HCT-15, 48 h, read-out: Activity
[22] = system: HT-29; test: Cytotoxicity against human HT-29 cells assessed as cell growth at 10^-8 M after 48 hrs by SRB assay; conditions: HT-29, 48 h, read-out: Activity
[23] = system: A549; test: Cytotoxicity against human A549 cells assessed as cell growth at 0.5 uM after 48 hrs by SRB assay; conditions: A549, 48 h, read-out: Activity
[24] = Cytotoxicity against human UACC257 cells assessed as cell growth at 50 uM after 48 hrs by SRB assay; conditions: UACC-257, 48 h, read-out: Activity
[25] = Cytotoxicity against human OVCAR5 cells assessed as cell growth at 50 uM after 48 hrs by SRB assay; conditions: OVCAR-5, 48 h, read-out: Activity
[26] = Cytotoxicity against human SF295 cells assessed as cell growth at 5 uM after 48 hrs by SRB assay; conditions: SF-295, 48 h, read-out: Activity
[27] = system: EKVX; test: Cytotoxicity against human EKVX cells assessed as cell growth at 5 uM after 48 hrs by SRB assay; conditions: read-out: Activity
[28] = system: MDA-MB-468; test: Cytotoxicity against human MDA-MB-468 cells assessed as cell growth at 50 nM after 48 hrs by SRB assay; conditions: MDA-MB-468, 48 h, read-out: Activity
[29] = Cytotoxicity against human HOP62 cells assessed as cell growth at 50 nM after 48 hrs by SRB assay; conditions: HOP-62, 48 h, read-out: Activity
[30] = Cytotoxicity against human Caki1 cells assessed as cell growth at 0.5 uM after 48 hrs by SRB assay; conditions: CAKI-1, 48 h, read-out: Activity
[31] = Cytotoxicity against human Hs 578T cells assessed as cell growth at 5 nM after 48 hrs by SRB assay; conditions: read-out: Activity
[32] = Cytotoxicity against human SW620 cells assessed as cell growth at 0.5 uM after 48 hrs by SRB assay; conditions: SW-620, 48 h, read-out: Activity
[33] = system: NCI-H522; test: Cytotoxicity against human NCI-H522 cells assessed as cell growth at 5 uM after 48 hrs by SRB assay; conditions: NCI-H522, 48 h, read-out: Activity
[34] = system: U-251; test: Cytotoxicity against human U251 cells assessed as cell growth at 50 uM after 48 hrs by SRB assay; conditions: U-251, 48 h, read-out: Activity
[35] = Cytotoxicity against human TK10 cells assessed as cell growth at 50 nM after 48 hrs by SRB assay; conditions: TK-10, 48 h, read-out: Activity
[36] = system: A498; test: Cytotoxicity against human A498 cells assessed as cell growth at 5 nM after 48 hrs by SRB assay; conditions: A498, 48 h, read-out: Activity
[37] = Cytotoxicity against human PC3 cells assessed as cell growth at 0.5 uM after 48 hrs by SRB assay; conditions: PC-3, 48 h, read-out: Activity
[38] = Cytotoxicity against human HL-60(TB) cells assessed as cell growth at 5 nM after 48 hrs by SRB assay; conditions: HL-60, 48 h, read-out: Activity
[39] = Cytotoxicity against human DU145 cells assessed as cell growth at 50 nM after 48 hrs by SRB assay; conditions: DU-145, 48 h, read-out: Activity
[40] = system: EKVX; test: Cytotoxicity against human EKVX cells assessed as cell growth at 0.5 uM after 48 hrs by SRB assay; conditions: read-out: Activity
[41] = Cytotoxicity against human PC3 cells assessed as cell growth at 50 uM after 48 hrs by SRB assay; conditions: PC-3, 48 h, read-out: Activity

`C/C(=C(/c1ccc(O)cc1)c1ccc(OCCN2CCCC2)cc1)c1ccccc1` gave a growth at 100 µM [1] of -87%, a growth at 100 µM [2] of -89% and a growth at 0.01 µM [3] of 106%. For the same molecule, the growth at 1 µM [4] was 84%, the growth at 0.1 µM [5] was 97% and the growth at 1 µM [6] was 104%. It also gave a growth at 1 µM [7] of 96%, a growth at 0.1 µM [8] of 88% and a growth at 0.1 µM [9] of 105%. It also gave a growth at 1 µM [10] of 122%, a growth at 10 µM [11] of -10% and a growth at 0.1 µM [12] of 103%. It also gave a growth at 10 µM [13] of -74%, a growth at 0.1 µM [14] of 63% and a growth at 100 µM [15] of -92%. The growth at 100 µM [16] was -70%, the growth at 0.1 µM [17] was 96% and the growth at 1 µM [18] was 104%. For the same molecule, the growth at 0.01 µM [19] was 90%, the growth at 10 µM [20] was 25% and the growth at 100 µM [21] was -100%. For the same molecule, the growth at 0.01 µM [22] was 101%.
Work on `CCCCCCCCCC(=O)Oc1ccc(/C(=C(/C)c2ccccc2)c2ccc(OCCN3CCCC3)cc2)cc1` yielded a growth at 0.5 µM [23] of 96%, a growth at 50 µM [24] of -91% and a growth at 50 µM [25] of -84%. It also gave a growth at 5 µM [26] of 86%, a growth at 5 µM [27] of 74% and a growth at 0.05 µM [28] of 100%. For the same molecule, the growth at 0.05 µM [29] was 95%, the growth at 0.5 µM [30] was 75% and the growth at 0.005 µM [31] was 92%. The growth at 0.5 µM [32] was 88%, the growth at 5 µM [33] was 96% and the growth at 50 µM [34] was -89%. The growth at 0.05 µM [35] was 97%, the growth at 0.005 µM [36] was 61% and the growth at 0.5 µM [37] was 86%. It also gave a growth at 0.005 µM [38] of 101%, a growth at 0.05 µM [39] of 98% and a growth at 0.5 µM [40] of 78%. It also gave a growth at 50 µM [41] of -90%.
